According to US9662404B2, “Compositions and methods for the delivery of molecules into live cells” (The Texas A&M University System, priority 2013, dated 2017):
Ends that are not written are not given here.

Columns and labels:
[1] = tested on: Dorsal root ganglion F11 (DRG-F11) neuronal cells; experiment: dTAT penetration into cells resistant to transfection; type: cell-based; details: 5 μM, 1 hour
Method: Dorsal root ganglion F11 (DRG-F11) neuronal cells are notoriously difficult to transfect. dTAT exposure was tested in DRG-F11 cells to determine whether the transfection difficulties also posed a barrier for dTAT. DRG-F11 cells were incubated for 1 hour with dTAT (5 μM).

HeLa cells [2] = experiment: Quantitative determination of peptide uptake inside cells (bulk fluorescence of cell lysates); type: cell-based; details: 1-10 μM, 1 h
Method: HeLa cells were seeded in a 48 well dish, grown and washed as described above. For the peptide uptake experiment, each well was incubated for 1 h with varying concentration of acTAT, TAT or dTAT (range: 5-25 μM peptide concentration). For the titration experiment, cells were incubated with dTAT (5 μM) and varying concentrations of DEAC-K9 (range: 1-20 μM). Cells were then washed with PBS and nrL-15 and imaged. Multiple images for each condition were obtained and processed. To lyse cells, nrL-15 was removed from the wells and a total of 100 μL of HeLa cell lysis Buffer (50 mM Tris pH 7.5, 2 mM EDTA, 2 mM DTT, 0.1% Triton X-100) was incubated with cells for 5 min. The cells were lysed and scraped off the dish and pipetted into a 1.5 mL microcentrifuge tube. The cell lysates were centrifuged at 13.2K RPM for 25 min. […] The fluorescence from the cell lysates were measured using a plate reader equipped with a fluorescence module (Ex==525, Em=580-640 nm) (GloMax®-Multi+ Detection System, Promega, Fitchburg, Wis.). For the titration experiment, 80 μL of supernatant was diluted to a total volume of 100 μL and the bulk fluorescence was measured using a SLM-8000C fluorometer (Ex=435 nm, Em=465-475 nm) (SLM Instruments, Bath, UK). The fluorescence emission was averaged and recorded. […] The absorbance at 600 nm was measured using the plate reader. […]

HeLa cells [3] = experiment: dTAT-induced cytosolic release of DEAC-K9 trapped inside endosomes; type: cell-based; details: 5 μM DEAC-K9 1 h, wash, 5 μM dTAT 1 h
Method: FIGS. 8A-8C illustrate that dTAT mediates endosomal escape. (FIG. 8A) Effect of endocytic inhibitors on the cellular distribution of dTAT. HeLa cells were pre-treated with 50 μM amiloride or 200 nM bafilomycin for 30 and 20 min respectively, washed, and incubated with 5 μM dTAT and inhibitor. […] Scale bar, 10 μm. […] A schematic illustration of the experimental steps is shown (top). First, cells were incubated with 5 μM DEAC-K9 for 1 h and washed. Inverted monochrome images show a fluorescence punctuate distribution after incubation with DEAC-K9 alone. The same cells were then incubated with 5 μM dTAT for 1 h. Images show a redistribution of DEAC-K9 to the cytosol and nucleus (inhibited by bafilomycin). Scale bars, 10 μm. (FIG. 8C) The endosomolytic activity of dTAT is highly efficient. HeLa cells expressing SNAPH2B were incubated with 5 μM dTAT and 5 μM SNAP-Surface® 488. Fluorescence images show accumulation of SNAP-Surface® 488 in the nucleus. […] Small panels show cytosolic and nuclear fluorescence of TMR. Scale bars, 10 μm.
To test whether endosomal escape is involved in delivery of dTAT, the effects of amiloride, a macropinocytosis inhibitor, and bafilomycin, an inhibitor of endosomal acidification, were assessed. […] Cells were then washed and incubated with dTAT (FIG. 8B). […] This redistribution was however inhibited by bafilomycin.

HeLa cells [4] = experiment: Cell viability, SYTOX exclusion assay; type: cell-based
Method: (§1) In order to determine cells that had compromised plasma membranes, cells were treated with SYTOX® Green (SYTOX® Blue in some cases) and Hoechst (Invitrogen, Carlsbad, Calif.). SYTOX® dyes are cell-impermeable and stain the DNA of cells with compromised plasma membranes. The Hoechst dye is cell permeable and stains the DNA of all cells. Images were acquired using the green and blue filter. The green and blue images were used to count cells with a blue or green stained nucleus. Image J was used to count the dead (green) and total cells (blue). Cytotoxicity was determined from the ratio of SYTOX® Green positive cells/total number of cells. An MTT-assay was performed to determine the effect of the peptide on cell proliferation. Cells were seeded in a 6-well dish, grown and washed as described above. One well from the dish was incubated with 5 μM dTAT at 37° C. for 1 h. A second well was left untreated and served as control. […] Cells were trypsinized and seeded into 96-well dishes containing 200 μL of DMEM. The cells were then allowed to attach to the bottom of the dish for 12 h. […] After the incubation each sample was mixed and the absorbance at 600 nm was measured. […] A second control consisted of cells treated with the delivery peptide but to which no MTT was added to subtract the contribution of TMR from the measured absorbance. The absorbance of the negative control was subtracted from all samples.

HeLa cells [5] = experiment: Cell proliferation, MTT assay; type: cell-based; details: 5 μM, 1 h; up to 36 h after incubation
Method: as §1

HeLa or NIH 3T3 cells = experiment: dTAT-mediated delivery of EGFP by co-incubation; type: cell-based; details: EGFP 10 μM and dTAT 5 μM, 1 h
Method: dTAT, DEAC-K9 and, SNAP-Surface® 488 are relatively small molecules. It was therefore addressed whether dTAT-mediated endosomal leakage could deliver large proteins into the cytosol of cells. For this assay, EGFP (26 kDa) was chosen as a model, since this protein is fluorescent only when properly folded. EGFP and dTAT were incubated for 1 h with cells and the protein distribution was examined by fluorescence. […] While protein degradation might take place during delivery, this assay establishes that a population of folded protein is delivered.
Images were acquired as described before.

[6] = tested on: HeLa transfected with the pCALNL-GFP plasmid; type: cell-based; details: delivery peptide 5 μM in the presence of TAT-Cre 1 μM, 1 h
Method: The number of cells in the images was approximately the same as assessed by bright field microscopy (1,000 cells/experiment, experiments in triplicate, average and standard deviations represented). Scale bars, 100 μM.
To further confirm that functional proteins can penetrate cells upon incubation with dTAT, delivery of Cre recombinase was tested. In this assay, Cre induces recombination of a loxP-STOP-loxP sequence upstream of the egfp gene of a reporter plasmid.

[7] = tested on: HeLa cells expressing SNAPH2B; experiment: Endosomal leakage efficiency with SNAP-Surface 488; details: 2.5 μM dTAT with 5 μM SNAP-Surface 488, 1 h
Method: HeLa cells were incubated with 5 μM SNAP-Surface® 488 for 1 h, washed and imaged. […] It should be noted that SNAP-Surface® 488 fluorescence is quenched (80%) before it reacts with the SNAP fusion tag.
HeLa cells were seeded in 8-well dishes, grown and washed as described in the prior section. Cells were then co-incubated with 5 M delivery peptide and with the cargo at the corresponding concentration for 1 h at 37° C. Cells were washed 3 times with PBS and nrL-15 and placed on the microscope. Images were acquired as described before. For transfection and expression of SNAP-H2B and TagCFP-mito, plasmids were mixed with Lipofectamine™ 2000 reagent in opti-MEM media and incubated at room temperature for 30 min. The DNA complex was added to previously seeded HeLa cells (80% confluent) on an 8-well dish and cells were kept at 37° C. for 24 h.

Substance: (CK(TMR)TAT)2 (CK(TMR)RKKRRQRRRG; also: dimer) [dTAT]
- penetration into the cytosol [1]: penetrates into the cytosol of DRG-F11 cells
- overall amount of peptide inside cells (cytosol+endosomes), bulk fluorescence of lysates (HeLa cells [2]): almost linearly correlated to the concentration of dTAT administered extracellularly
- distribution of DEAC-K9 fluorescence after subsequent addition of dTAT (HeLa cells [3]): redistribution of the DEAC signal throughout the cytosol and nucleus
- effect on cell viability (HeLa cells [4]; 5 μM): does not affect cell viability
- fraction of dead cells (HeLa cells [4]; 5 μM dTAT, 1 h incubation, 1, 24 and 48 h after incubation): below 5%
- cell growth versus untreated cells (HeLa cells [5]): grow at the same rate as untreated cells
- cells with EGFP distributed into the cytosol and nucleus (HeLa or NIH 3T3 cells): more than 90%
- toxicity during EGFP delivery (HeLa or NIH 3T3 cells): without observable toxicity
- percentage of EGFP+ cells [6]: 47%
- cytosolic release [7]: does not result in significant cytosolic release
